Measurements: ChEMBL document CHEMBL4017455, “Novel small molecule guanidine Sigma1 inhibitors for advanced prostate cancer” (Bioorg Med Chem Lett, 2017)
In brackets after ≈: the same amount, converted by molar mass. Activity calls are given as the source filed them. The calls are words filed in the database; no cut-off is given here.

Assays:
[1] = biological target: T1, Sigma non-opioid intracellular receptor 1 (Homo sapiens, UniProt Q99720); assay: Displacement of [125I]-IPAG from sigma1 in human MDA-MB-468 cell membranes
T1 sequence (Q99720 whole entry): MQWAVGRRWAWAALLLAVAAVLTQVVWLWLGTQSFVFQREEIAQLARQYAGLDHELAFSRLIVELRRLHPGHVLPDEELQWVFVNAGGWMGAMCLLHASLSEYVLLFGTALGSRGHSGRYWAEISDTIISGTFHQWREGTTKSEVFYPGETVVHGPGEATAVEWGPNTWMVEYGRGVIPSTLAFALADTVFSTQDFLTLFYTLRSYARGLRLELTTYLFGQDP

[2] = Stability in mouse plasma; format: ADME, cell-free; details: read-out: Stability
[3] = Half life in Swiss mouse plasma at 10 mg/kg, po
[4] = Volume of distribution in Swiss mouse plasma at 2 mg/kg, iv; format: ADME, organism-based
[5] = Half life in Swiss mouse plasma at 30 mg/kg, po
[6] = biological target: T2, Androgen receptor (Homo sapiens, UniProt P10275); assay: Antagonist activity at full length human androgen receptor expressed in mammalian expression system measured after 22 to 24 hrs by luciferase reporter gene assay
T2 sequence (P10275 whole entry): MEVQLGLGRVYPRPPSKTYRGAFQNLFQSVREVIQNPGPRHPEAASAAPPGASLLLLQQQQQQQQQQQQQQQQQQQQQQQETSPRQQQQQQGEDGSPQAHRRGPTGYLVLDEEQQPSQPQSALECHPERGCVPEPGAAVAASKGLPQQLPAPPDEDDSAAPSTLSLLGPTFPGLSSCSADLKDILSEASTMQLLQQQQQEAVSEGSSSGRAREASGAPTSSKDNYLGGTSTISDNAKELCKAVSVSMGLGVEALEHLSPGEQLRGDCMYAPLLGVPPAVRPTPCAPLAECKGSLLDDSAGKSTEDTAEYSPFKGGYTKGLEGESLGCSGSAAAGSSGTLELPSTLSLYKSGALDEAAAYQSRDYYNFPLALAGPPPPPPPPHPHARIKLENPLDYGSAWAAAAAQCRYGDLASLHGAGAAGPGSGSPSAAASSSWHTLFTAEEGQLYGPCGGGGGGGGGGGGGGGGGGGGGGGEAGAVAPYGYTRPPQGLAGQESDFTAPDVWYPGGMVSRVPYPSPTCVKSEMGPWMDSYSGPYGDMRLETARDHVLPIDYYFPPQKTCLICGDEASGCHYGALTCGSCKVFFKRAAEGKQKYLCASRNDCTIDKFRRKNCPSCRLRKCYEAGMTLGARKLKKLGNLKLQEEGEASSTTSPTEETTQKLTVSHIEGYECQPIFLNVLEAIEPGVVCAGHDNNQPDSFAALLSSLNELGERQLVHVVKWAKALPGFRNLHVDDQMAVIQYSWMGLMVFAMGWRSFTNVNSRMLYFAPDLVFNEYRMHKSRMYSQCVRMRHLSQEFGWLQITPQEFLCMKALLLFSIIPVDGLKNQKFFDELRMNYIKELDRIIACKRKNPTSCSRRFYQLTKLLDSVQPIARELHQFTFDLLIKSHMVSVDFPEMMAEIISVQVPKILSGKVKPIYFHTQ

[7] = AUC (0 to infinity) in Swiss mouse brain at 10 mg/kg, ip; format: ADME, organism-based; design: dose 10 mg/kg, time infinity, route intraperitoneal
[8] = in vivo; details: Swiss, mouse, plasma, po, 30 mg/kg
[9] = Stability in human liver microsomes; format: ADME, microsome; details: read-out: Stability
[10] = in vivo; details: Swiss, mouse, plasma, po, 30 mg/kg; remark: listed apart in the source
[11] = AUC (0 to infinity) in Swiss mouse plasma at 10 mg/kg, ip; format: ADME, organism-based; design: dose 10 mg/kg, route intraperitoneal, time infinity
[12] = tested on: Plasma; details: mouse, in vivo, ip, 10 mg/kg
[13] = AUC (0 to infinity) in Swiss mouse plasma at 2 mg/kg, iv; format: ADME, organism-based; design: dose 2 mg/kg, time infinity, route intravenous
[14] = tested on: Plasma; assay: Protein binding in mouse plasma; format: ADME, cell-free
[15] = AUC (0 to infinity) in Swiss mouse plasma at 10 mg/kg, po; format: ADME, organism-based; design: dose 10 mg/kg, time infinity, route oral
[16] = in vivo; details: Swiss, mouse, plasma, po, 30 mg/kg; remark: listed apart in the source
[17] = in vivo; details: Swiss, mouse, plasma, po, 10 mg/kg
[18] = AUC (0 to infinity) in Swiss mouse plasma at 30 mg/kg, po; format: ADME, organism-based; design: dose 30 mg/kg, time infinity, route oral
[19] = in vivo; details: Swiss, mouse, plasma, po, 10 mg/kg; remark: listed apart in the source
[20] = Stability in human plasma; format: ADME, cell-free; details: read-out: Stability
[21] = Clearance in Swiss mouse plasma at 2 mg/kg, iv
[22] = tested on: MDA-MB-468; assay: Antiproliferative activity against human MDA-MB-468 cells at 3 to 20 uM by CellTiter-Glo assay; format: functional, cell-based
[23] = Stability in mouse liver microsomes; format: ADME, microsome; details: read-out: Stability
[24] = Ratio of drug level in Swiss mouse brain to plasma at 10 mg/kg, ip
[25] = in vivo; details: Swiss, mouse, plasma, po, 10 mg/kg; remark: listed apart in the source
[26] = Solubility of compound in PBS buffer at pH 7.4; format: physicochemical
[27] = tested on: Plasma; assay: Protein binding in human plasma; format: ADME, cell-free
[28] = tested on: Brain; details: mouse, in vivo, ip, 10 mg/kg
[29] = biological target: T1, Sigma non-opioid intracellular receptor 1; assay: Displacement of [3H]-(+)-pentazocine from sigma1 in human MDA-MB-468 cell membranes
[30] = biological target: T3, Voltage-gated inwardly rectifying potassium channel KCNH2 (Homo sapiens, UniProt Q12809); assay: Inhibition of human ERG
T3 sequence (Q12809 whole entry): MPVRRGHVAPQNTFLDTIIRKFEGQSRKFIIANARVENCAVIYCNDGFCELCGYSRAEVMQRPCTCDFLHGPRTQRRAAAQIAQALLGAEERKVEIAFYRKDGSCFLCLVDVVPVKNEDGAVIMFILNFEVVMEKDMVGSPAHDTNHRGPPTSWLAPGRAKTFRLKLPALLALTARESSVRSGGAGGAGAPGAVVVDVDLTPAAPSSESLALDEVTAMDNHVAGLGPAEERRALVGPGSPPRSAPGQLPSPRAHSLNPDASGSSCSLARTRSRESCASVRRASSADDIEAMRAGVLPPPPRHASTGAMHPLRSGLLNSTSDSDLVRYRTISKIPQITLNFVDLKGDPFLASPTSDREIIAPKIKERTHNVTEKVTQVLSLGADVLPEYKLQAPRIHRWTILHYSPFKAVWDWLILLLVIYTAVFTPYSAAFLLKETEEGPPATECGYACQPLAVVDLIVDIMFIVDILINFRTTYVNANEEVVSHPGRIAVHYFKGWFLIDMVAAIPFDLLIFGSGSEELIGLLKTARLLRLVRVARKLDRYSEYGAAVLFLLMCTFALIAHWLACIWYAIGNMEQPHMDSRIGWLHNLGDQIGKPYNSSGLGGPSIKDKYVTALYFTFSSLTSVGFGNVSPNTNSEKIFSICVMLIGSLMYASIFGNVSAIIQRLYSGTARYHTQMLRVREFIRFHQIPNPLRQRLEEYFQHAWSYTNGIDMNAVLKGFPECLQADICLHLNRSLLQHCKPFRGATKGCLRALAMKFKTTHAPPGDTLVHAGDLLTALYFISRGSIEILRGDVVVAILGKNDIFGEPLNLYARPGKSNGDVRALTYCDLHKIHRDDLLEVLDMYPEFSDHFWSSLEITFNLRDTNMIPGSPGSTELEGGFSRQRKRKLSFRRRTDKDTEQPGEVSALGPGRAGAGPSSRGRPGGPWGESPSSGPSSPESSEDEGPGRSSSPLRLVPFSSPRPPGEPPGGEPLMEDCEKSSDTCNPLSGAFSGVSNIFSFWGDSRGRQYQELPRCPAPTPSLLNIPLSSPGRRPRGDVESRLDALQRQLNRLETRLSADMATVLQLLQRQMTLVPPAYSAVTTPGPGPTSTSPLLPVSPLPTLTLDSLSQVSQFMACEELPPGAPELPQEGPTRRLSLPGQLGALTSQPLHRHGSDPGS

[31] = biological target: T3, Voltage-gated inwardly rectifying potassium channel KCNH2; assay: Inhibition of human ERG expressed in CHOK1 cells by Qpatch clamp method

SMILES: N=C(Nc1ccc(I)cc1)Nc1ccc(I)cc1
- Ki [1]: 3 nM

SMILES: N=C(NCCCOc1ccc(F)cc1)Nc1ccc(Cl)cc1
- half-life [2]: > 6 h
- half-life [3]: > 3 h
- Vd [4]: 57.6 to 91 L/kg
- half-life [5]: > 3 h
- EC50 [6]: 12700 nM
- AUC(0-inf) [7]: 856 ng·h/mL
- Cmax [8]: 674 nM
- half-life [9]: > 1.5 h
- AUC(0-t) [10]: 414 ng·h/mL
- AUC(0-inf) [11]: 166 ng·h/mL
- Cmax [12]: 438 nM
- AUC(0-inf) [13]: 57 to 71 ng·h/mL
- PPB [14]: 88.8%
- AUC(0-inf) [15]: 141 ng·h/mL
- Tmax [16]: 1 h
- Tmax [17]: 0.25 h
- AUC(0-inf) [18]: 480 ng·h/mL
- Cmax [19]: 304 nM
- half-life [20]: > 6 h
- clearance [21]: 469 to 586 mL/min/kg
- Activity [22]: Active
- half-life [23]: 0.413 h
- Kp [24]: 5
- AUC(0-t) [25]: 119 ng·h/mL
- solubility [26]: 4580 µg/mL (≈ 14.2 mM)
- PPB [27]: 93.4%
- Cmax [28]: 2150 nM

SMILES: N=C(NCCCOc1ccc(F)cc1)Nc1ccc(C(F)(F)F)cc1
- Ki [29]: 45.3 nM

SMILES: CC(=O)O[C@H]1CC[C@@]2(C)C(=CC[C@@H]3[C@@H]2CC[C@]2(C)C(c4cccnc4)=CC[C@@H]32)C1 [ABIRATERONE ACETATE]
- EC50 [6]: 17000 to 17100 nM

SMILES: NC(=NC12CC3CC(CC(C3)C1)C2)Nc1ccc(I)cc1
- EC50 [6]: 9500 to 9750 nM
- IC50 [30]: 491 nM
- IC50 [31]: 2600 nM

SMILES: N=C(NCCCOc1ccc(F)cc1)Nc1ccc(I)cc1
- half-life [2]: > 6 h
- half-life [9]: > 1.5 h
- PPB [14]: 97.9%
- IC50 [30]: 109 nM
- half-life [20]: > 6 h
- Activity [22]: Active
- half-life [23]: 0.41 h
- solubility [26]: 5370 µg/mL (≈ 13 mM)
- PPB [27]: 96.6%
- Ki [29]: 46.1 nM

SMILES: COc1ccc(NC(=N)NCCCOc2ccc(F)cc2)cc1
- half-life [2]: > 6 h
- EC50 [6]: 28100 nM
- half-life [9]: 0.387 h
- PPB [14]: 82.1%
- IC50 [30]: 417 nM
- half-life [20]: > 6 h
- half-life [23]: 0.117 h
- solubility [26]: 8450 µg/mL (≈ 26.6 mM)
- PPB [27]: 75.1%
- Ki [29]: 13.4 nM

SMILES: N=C(NCCCOc1ccc(F)cc1)NCCCOc1ccc(F)cc1
- Ki [1]: > 1000 nM
